Among the data in patent US20230365563A1, “QUINAZOLINE COMPOUND AND APPLICATION THEREOF” (SHANGHAI PHARMACEUTICALS HOLDING CO., LTD., priority 2020, published 2023) are IC50 values, retold here.

By IC50 is commonly meant the concentration at which inhibition is half-maximal.

One experiment has as its target T1, KRAS-G12D and SOS1 (Homo sapiens, UniProt P01116, G12D).
T1 construct: purchased
Nature of the experiment: Inhibition of KRAS-G12D/SOS1 binding (Cisbio binding kit, 665/615 ratio), Effect Embodiment A. As to conditions: read-out: GTP-KRAS-G12D:SOS1 IC50. The essentials: (§1)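 Compounds underwent 3-fold dilution from their storage solutions (11 points), were transferred to assay wells in duplicate with DMSO held at 1% final, and were briefly centrifuged.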

The target of the next experiment is T2, KRAS_G12D and cRAF (Homo sapiens, UniProt P01116, G12D).
T2 construct: purchased
T2 sequence (P01116 1-188 isoform P01116-2 G12D): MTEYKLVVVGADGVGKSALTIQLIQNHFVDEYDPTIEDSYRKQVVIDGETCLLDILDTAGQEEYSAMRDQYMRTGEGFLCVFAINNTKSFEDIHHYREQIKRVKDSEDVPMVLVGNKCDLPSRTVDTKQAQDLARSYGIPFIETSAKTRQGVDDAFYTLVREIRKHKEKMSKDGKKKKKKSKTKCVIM
Nature of the experiment: Inhibition of KRAS_G12D/cRAF binding (Cisbio binding kit, 665/615 ratio), Effect Embodiment B. As to conditions: read-out: GTP-KRAS-G12D:CRAF IC50. In a few lines: as §1

Another experiment concerns the target T3, KRAS_WT and SOS1 (Homo sapiens, UniProt P01116).
T3 construct: purchased
Briefly: Inhibition of KRAS_WT/SOS1 binding (Cisbio binding kit, 665/615 ratio), Effect Embodiment C. As to conditions: read-out: GTP-KRAS-WT:SOS1 IC50. In a few lines:
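Compounds tested as 3-fold, 11-point dilutions in duplicate at 1% DMSO final against the KRAS_WT/SOS1 binding system. IC50 derived by nonlinear regression fit.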

Structures can show the parent of a compound that is named as a salt.

T3 sequence (P01116 1-188 isoform P01116-2): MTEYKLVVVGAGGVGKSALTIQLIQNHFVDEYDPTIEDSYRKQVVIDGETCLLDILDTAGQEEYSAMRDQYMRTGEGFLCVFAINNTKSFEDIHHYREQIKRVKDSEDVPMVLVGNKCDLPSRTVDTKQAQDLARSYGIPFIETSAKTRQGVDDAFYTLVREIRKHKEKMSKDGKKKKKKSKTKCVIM
T1 sequence (P01116 1-188 isoform P01116-2 G12D): as the sequence (P01116 1-188 isoform P01116-2 G12D) above

In the case of `CN1CCC[C@H]1COc1nc(N2C[C@H]3CC[C@@H](C2)N3)c2ccc(-c3cc(O)cc4ccccc34)c(F)c2n1` [Compound 144, 4-(4-((1R,5S)-3,8-diazabicyclo[3.2.1]octan-3-yl)-8-fluoro-2-((S)-1-methylpyrrolidin-2-yl)methoxy)quinazolin-7-yl)naphthalen-2-ol tritrifluoroacetate], the IC50 on KRAS-G12D and SOS1 amounted to 14.4 nM; on KRAS_G12D and cRAF, 17.9 nM; at KRAS_WT and SOS1, 180 nM.

With `C[C@@H]1COC[C@@H](C)N1CCCOc1nc(N2C[C@H]3CC[C@@H](C2)N3)c2cc(Cl)c(-c3cc(O)cc4ccccc34)c(F)c2n1` (single isomer, unassigned) [Compound 164, (R or S)-4-(4-((1R,5S)-3,8-diazabicyclo[3.2.1]octan-3-yl)-6-chloro-2-(3-((3R,5R)-3,5-dimethylmorpholinyl)propoxy)-8-fluoroquinazolin-7-yl)naphthalen-2-ol dihydrochloride], the IC50 on KRAS-G12D and SOS1 was 43.9 nM; on KRAS_G12D and cRAF it was 115 nM; on KRAS_WT and SOS1, 2530 nM.

Consider `CC[C@@H]1CN(CCCOc2nc(N3CC4CCC(C3)N4)c3cc(Cl)c(-c4cc(O)cc5ccccc45)c(F)c3n2)C[C@H](CC)O1` (single isomer, unassigned) [Compound 221, 4-((S or R)-4-((1R,5S)-3,8-diazabicyclo[3.2.1]octan-3-yl)-6-chloro-2-(3-((2S,6R)-2,6-diethylmorpholinyl)propoxy)-8-fluoroquinazolin-7-yl)naphthalen-2-ol formate], for which the IC50 on KRAS-G12D and SOS1 was 63.6 nM; on KRAS_G12D and cRAF it was 175 nM; on KRAS_WT and SOS1, 5030 nM.
